Results on 40 molecules are retold here after ChEMBL document CHEMBL3137361, “MMV Box P. falciparum screening”.

For this test, the system named is Plasmodium falciparum. Kind of test: MMV: Growth inhibition of P. falciparum cultures was quantified using a parasite lactate dehydrogenase (LDH) assay. The cultures were diluted to 0.5% parasitemea and 2% hematocrit and subjected to each twofold serial dilutions of the compounds for 72 h (DMSO final concentration, 0.25%). After 72 h, the cultures were frozen. LDH activity of P. falciparum parasites in aliquots of freeze-thawed cultures was spectrophotometrically measured and the IC50s were determined. The format is functional, organism-based. Particulars: FCR3, 72 h.
For `O=C(Nc1ccc(Cl)c(Cl)c1)Nc1ccc(Cl)c(Cl)c1`, the IC50 (in general, the concentration needed to halve the response being measured) is 2020 nM. As for `OC(CNCC1CCCO1)Cn1c2ccc(Cl)cc2c2cc(Cl)ccc21` (stereo not given), the figure is 291 nM; as for `CCn1nc(-c2ccc(C(=O)OC)cc2)nc2c(=O)n(C)c(=O)nc1-2`, 1510 nM.

As to `CC1(c2ccccc2)Nc2ccccc2-c2nc3ccccc3n21` (stereo not given), the IC50 stood at 394 nM. Molecule `COc1cccc(C2(C)Nc3ccccc3-c3nc4ccccc4n32)c1` (stereo not given) came in with a concentration for half-maximal inhibition (IC50) of 388 nM. The molecule `CC(C)(C)CC(C)(C)NCC(O)COc1ccc(Cl)cc1Cl` (stereo not given) gave an IC50 of 544 nM. Consider `Cc1ccc(Nc2nc(-c3ccccn3)cs2)cc1`, for which the IC50 stood at 1430 nM. Consider `OC1=C2C(=Nc3ccccc3SC2c2ccccc2)c2ccccc21` (stereo not given), for which inhibition was half-maximal at 337 nM (IC50).

Consider `COCCNCC(O)Cn1c2ccc(Cl)cc2c2cc(Cl)ccc21` (stereo not given), for which the midpoint of inhibition, the IC50, lay at 277 nM.

On to `FC(F)(F)c1cccc(Nc2nc3ccccc3nc2Nc2cccc(C(F)(F)F)c2)c1`, for which the IC50 stood at 1160 nM. The value for `CCC(O)c1ccc(Br)cc1NC(=O)c1cccc(Cl)c1` (stereo not given) was 1330 nM. In the case of `O=c1nc(C=Cc2ccc(Br)cc2)oc2ccccc12`, the IC50 was more than 5000 nM. With `Brc1ccc(Nc2nc3ccccc3nc2Nc2ccc(Br)cc2)cc1`, inhibition was half-maximal at 1560 nM (IC50). In the case of `FC(F)(F)c1cccc(Nc2nc(-c3ccccc3)nc3ncccc23)c1`, the IC50 came to 905 nM. As for `COc1ccc(C=C2SC(=N)N(c3ccccc3OC)C2=O)cc1`, the IC50 was determined as 287 nM. With `Cc1cc(Nc2ccc(OCc3ccccc3)cc2)nc2cc(O)ccc12`, the IC50 worked out at 127 nM. Take `OCCNc1nc(Nc2ccc(Cl)c(Cl)c2)nc2ccccc12`: the concentration for half-maximal inhibition (IC50) was 274 nM. `Cc1ccc(C)c(Cn2c(N3CCC(C(=O)NCc4cccs4)CC3)nc3ccccc32)c1`: the IC50 came out at 1810 nM. `O=C1c2ccccc2C2=Nc3ccccc3SC(c3cccc(F)c3)C12` (stereo not given) registered an IC50 of 708 nM. Molecule `COc1ccccc1NC1=C(N2CCCCC2)C(=O)c2ccccc2C1=O` showed an IC50 of 50 nM. The molecule `O=C(Nc1ccc(N2CCCCC2)c(Cl)c1)c1ccc(Br)o1` came in with an IC50 of 1090 nM. The value for `OC(CNC1CCCCC1)Cn1c2ccc(I)cc2c2cc(I)ccc21` (stereo not given) was 137 nM; that for `O=C(Nc1cccc(C(F)(F)F)c1)c1cc(Cl)ccc1O` was 3620 nM. Molecule `CCOc1cccc2sc(N(Cc3cccnc3)C(=O)C3CCCCC3)nc12` returned an IC50 of more than 5000 nM. `CCc1ccc(Nc2cc(C)c3ccc(O)cc3n2)cc1` showed an IC50 of 76.7 nM. As for `COc1ccc(C(O)(CCC(C)C)C(CN2CCOCC2)c2ccc(Cl)cc2)cc1` (stereo not given), the figure is more than 5000 nM; as for `O=C(Nc1nc(-c2ccccn2)cs1)c1ccccc1Br`, 2720 nM.

For the molecule `CSc1ccccc1C(=O)Nc1nc(-c2ccccn2)cs1`, the IC50 is 2160 nM. The value for `CC(C)(C)c1ccc2c(c1)CN(Cc1ccc(Cl)cc1)CO2` was 35.5 nM. The value for `CCCCC(O)(c1ccc(Cl)cc1)C(CN1CCOCC1)c1ccc(Cl)cc1` (stereo not given) was more than 5000 nM; that for `O=c1nc(C=Cc2ccc(Cl)cc2)oc2ccccc12` was more than 5000 nM. Molecule `c1ccc(CNc2nc(Nc3ccccc3)nc3ccccc23)cc1` came in with an IC50 of 430 nM.

Molecule `COc1ccc(Nc2nc(NCc3ccccc3)c3ccccc3n2)cc1` yielded an IC50 of 204 nM.

For `Oc1c(CN2CCN(c3ccccc3F)CC2)cc(Br)c2cccnc12`, the IC50 was 771 nM. Consider `OC(CNCc1ccccc1)Cn1c2ccccc2c2ccccc21` (stereo not given), for which the IC50 worked out at 717 nM. Regarding `CCCCCCC(O)(c1ccc(F)cc1)C(CN1CCOCC1)c1ccccc1` (stereo not given), the IC50 is more than 5000 nM.

`COc1ccc(C(=O)C2CC2c2ccc(Cl)cc2)cc1` (stereo not given) displayed an IC50 of 2700 nM. The molecule `COc1ccc2sc(N(Cc3cccnc3)C(=O)c3ccc(C#N)cc3)nc2c1` displayed an IC50 of more than 5000 nM. For `O=C(NCC1Cc2cccc(-c3ccncc3)c2O1)c1csc2c1CCCC2` (stereo not given), the half-maximal inhibitory concentration (IC50) is more than 5000 nM.

As for `CN(C)c1ccc(C(O)(c2ccc(N(C)C)cc2)c2ccc(N(C)C)cc2)cc1` [METHYLROSANILINE], half-maximal inhibition (IC50) was put at 47.3 nM.
